Source: PubChem BioAssay AID1963423 (Molecular Pharmacology Branch, DTP, NCI, 2024)

Test system: 439559-082-T-J2-PDC complex spheroid growth
Assay: Anticancer human tumor 439559-082-T-J2-PDC patient-derived colon adenocarcinoma cell line growth inhibition [Asc]
Conditions: for IC50: curve of first compound; for viability, T/C: stronger effect = lower value
Method in brief: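 Spheroid model: tumor line + HUVEC + hMSC. Single agents and combinations; top conc. at/near clinical Cmax (10 microM if undetermined), half-log dilutions. DMSO stocks at 800-fold test concentration.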

[1] = second compound 0.00316 µM, first compound 0.0316 µM
[2] = second compound 0.00316 µM, first compound 0.1 µM
[3] = second compound 0.00316 µM, first compound 0.316 µM
[4] = second compound 0.00316 µM, first compound 1 µM
[5] = second compound 0.00316 µM, first compound 3.16 µM
[6] = second compound 0.00316 µM, first compound 10 µM
[7] = second compound 0.01 µM, first compound 0.0316 µM
[8] = second compound 0.01 µM, first compound 0.1 µM
[9] = second compound 0.01 µM, first compound 0.316 µM
[10] = second compound 0.01 µM, first compound 1 µM
[11] = second compound 0.01 µM, first compound 3.16 µM
[12] = second compound 0.01 µM, first compound 10 µM
[13] = second compound 0.0316 µM, first compound 0.0316 µM
[14] = second compound 0.0316 µM, first compound 0.1 µM
[15] = second compound 0.0316 µM, first compound 0.316 µM
[16] = second compound 0.0316 µM, first compound 1 µM
[17] = second compound 0.0316 µM, first compound 3.16 µM
[18] = second compound 0.0316 µM, first compound 10 µM
[19] = second compound 0.1 µM, first compound 0.0316 µM
[20] = second compound 0.1 µM, first compound 0.1 µM
[21] = second compound 0.1 µM, first compound 0.316 µM
[22] = second compound 0.1 µM, first compound 1 µM
[23] = second compound 0.1 µM, first compound 3.16 µM
[24] = second compound 0.1 µM, first compound 10 µM
[25] = second compound 0.316 µM, first compound 0.0316 µM
[26] = second compound 0.316 µM, first compound 0.1 µM
[27] = second compound 0.316 µM, first compound 0.316 µM
[28] = second compound 0.316 µM, first compound 1 µM
[29] = second compound 0.316 µM, first compound 3.16 µM
[30] = second compound 0.316 µM, first compound 10 µM
[31] = second compound 1 µM, first compound 0.0316 µM
[32] = second compound 1 µM, first compound 0.1 µM
[33] = second compound 1 µM, first compound 0.316 µM
[34] = second compound 1 µM, first compound 1 µM
[35] = second compound 1 µM, first compound 3.16 µM
[36] = second compound 1 µM, first compound 10 µM
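Note: spheroids exposed to agents for 7 days starting day 3 after seeding.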
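Throughout, for viability, T/C: percent of DMSO vehicle control viability with 100% = vehicle.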

SMILES: C#Cc1c(F)ccc2cc(O)cc(-c3ncc4c(N5CC6CCC(C5)N6)nc(OCC56CCCN5CC(F)C6)nc4c3F)c12 (stereo unspecified) + CNC(C)C(=O)NC1CN(S(=O)(=O)c2cccc(S(=O)(=O)N3CCC4CCC(C(=O)NC(c5ccccc5)c5ccccc5)N4C(=O)C(NC(=O)C(C)NC)C3)c2)CCC2CCC(C(=O)NC(c3ccccc3)c3ccccc3)N2C1=O
- IC50 (second compound 0.00316 µM): 2 µM
- IC50 (second compound 0.01 µM): 2.62 µM
- IC50 (second compound 0.0316 µM): 1.66 µM
- IC50 (second compound 0.1 µM): 1.91 µM
- IC50 (second compound 0.316 µM): 1.03 µM
- IC50 (second compound 1 µM): 0.269 µM
- viability, T/C [1]: 103%
- viability, T/C [2]: 76.9%
- viability, T/C [3]: 66.3%
- viability, T/C [4]: 58.9%
- viability, T/C [5]: 46.9%
- viability, T/C [6]: 38.9%
- viability, T/C [7]: 104%
- viability, T/C [8]: 82%
- viability, T/C [9]: 66.1%
- viability, T/C [10]: 62.9%
- viability, T/C [11]: 48.5%
- viability, T/C [12]: 39.8%
- viability, T/C [13]: 95%
- viability, T/C [14]: 94.3%
- viability, T/C [15]: 66.8%
- viability, T/C [16]: 54.9%
- viability, T/C [17]: 50%
- viability, T/C [18]: 37.5%
- viability, T/C [19]: 91.8%
- viability, T/C [20]: 73.8%
- viability, T/C [21]: 65.8%
- viability, T/C [22]: 60.1%
- viability, T/C [23]: 45.3%
- viability, T/C [24]: 34.3%
- viability, T/C [25]: 84.7%
- viability, T/C [26]: 78.5%
- viability, T/C [27]: 59.4%
- viability, T/C [28]: 51.4%
- viability, T/C [29]: 40%
- viability, T/C [30]: 30.1%
- viability, T/C [31]: 66%
- viability, T/C [32]: 55.2%
- viability, T/C [33]: 50.7%
- viability, T/C [34]: 40%
- viability, T/C [35]: 29%
- viability, T/C [36]: 21.6%

SMILES: C=C(F)C(=O)N1CCN(c2nc(OCC3CCCN3C)nc3c2CCN(c2cccc4cccc(Cl)c24)C3)CC1CC#N (stereo unspecified) + CNC(C)C(=O)NC1CN(S(=O)(=O)c2cccc(S(=O)(=O)N3CCC4CCC(C(=O)NC(c5ccccc5)c5ccccc5)N4C(=O)C(NC(=O)C(C)NC)C3)c2)CCC2CCC(C(=O)NC(c3ccccc3)c3ccccc3)N2C1=O
- IC50 (second compound 0.00316 µM): 5.51 µM
- IC50 (second compound 0.01 µM): 4.85 µM
- IC50 (second compound 0.0316 µM): 4.25 µM
- IC50 (second compound 0.1 µM): 4.11 µM
- IC50 (second compound 0.316 µM): 3.52 µM
- IC50 (second compound 1 µM): 2.56 µM
- viability, T/C [1]: 101%
- viability, T/C [2]: 104%
- viability, T/C [3]: 103%
- viability, T/C [4]: 85.6%
- viability, T/C [5]: 94.4%
- viability, T/C [6]: 2.3%
- viability, T/C [7]: 98.8%
- viability, T/C [8]: 100%
- viability, T/C [9]: 94.9%
- viability, T/C [10]: 101%
- viability, T/C [11]: 77.3%
- viability, T/C [12]: 3.86%
- viability, T/C [13]: 102%
- viability, T/C [14]: 102%
- viability, T/C [15]: 104%
- viability, T/C [16]: 104%
- viability, T/C [17]: 67.2%
- viability, T/C [18]: 0.24%
- viability, T/C [19]: 96.1%
- viability, T/C [20]: 101%
- viability, T/C [21]: 92.2%
- viability, T/C [22]: 87.2%
- viability, T/C [23]: 64.3%
- viability, T/C [24]: 3.14%
- viability, T/C [25]: 95.4%
- viability, T/C [26]: 90.3%
- viability, T/C [27]: 83.4%
- viability, T/C [28]: 79%
- viability, T/C [29]: 56.3%
- viability, T/C [30]: 0.25%
- viability, T/C [31]: 84.5%
- viability, T/C [32]: 75.3%
- viability, T/C [33]: 82.5%
- viability, T/C [34]: 66.4%
- viability, T/C [35]: 46.3%
- viability, T/C [36]: 0.27%

SMILES: CCN1C(C(=O)NC23CCC(C(=O)O)(CC2)CC3)C(c2cccc(Cl)c2F)C2(C(=O)Nc3cc(Cl)ccc32)C12CCCCC2 (stereo unspecified) + CNC(C)C(=O)NC1CN(S(=O)(=O)c2cccc(S(=O)(=O)N3CCC4CCC(C(=O)NC(c5ccccc5)c5ccccc5)N4C(=O)C(NC(=O)C(C)NC)C3)c2)CCC2CCC(C(=O)NC(c3ccccc3)c3ccccc3)N2C1=O
- IC50 (second compound 0.00316 µM): > 3 µM
- IC50 (second compound 0.01 µM): > 3 µM
- IC50 (second compound 0.0316 µM): > 3 µM
- IC50 (second compound 0.1 µM): > 3 µM
- IC50 (second compound 0.316 µM): > 3 µM
- IC50 (second compound 1 µM): > 3 µM
- viability, T/C (second compound 0.00316 µM, first compound 0.00949 µM): 116%
- viability, T/C (second compound 0.00316 µM, first compound 0.03 µM): 92.9%
- viability, T/C (second compound 0.00316 µM, first compound 0.0949 µM): 107%
- viability, T/C (second compound 0.00316 µM, first compound 0.3 µM): 106%
- viability, T/C (second compound 0.00316 µM, first compound 0.949 µM): 95.6%
- viability, T/C (second compound 0.00316 µM, first compound 3 µM): 107%
- viability, T/C (second compound 0.01 µM, first compound 0.00949 µM): 109%
- viability, T/C (second compound 0.01 µM, first compound 0.03 µM): 103%
- viability, T/C (second compound 0.01 µM, first compound 0.0949 µM): 100%
- viability, T/C (second compound 0.01 µM, first compound 0.3 µM): 99.8%
- viability, T/C (second compound 0.01 µM, first compound 0.949 µM): 113%
- viability, T/C (second compound 0.01 µM, first compound 3 µM): 96.5%
- viability, T/C (second compound 0.0316 µM, first compound 0.00949 µM): 103%
- viability, T/C (second compound 0.0316 µM, first compound 0.03 µM): 106%
- viability, T/C (second compound 0.0316 µM, first compound 0.0949 µM): 103%
- viability, T/C (second compound 0.0316 µM, first compound 0.3 µM): 102%
- viability, T/C (second compound 0.0316 µM, first compound 0.949 µM): 115%
- viability, T/C (second compound 0.0316 µM, first compound 3 µM): 110%
- viability, T/C (second compound 0.1 µM, first compound 0.00949 µM): 95.9%
- viability, T/C (second compound 0.1 µM, first compound 0.03 µM): 101%
- viability, T/C (second compound 0.1 µM, first compound 0.0949 µM): 117%
- viability, T/C (second compound 0.1 µM, first compound 0.3 µM): 99.1%
- viability, T/C (second compound 0.1 µM, first compound 0.949 µM): 105%
- viability, T/C (second compound 0.1 µM, first compound 3 µM): 107%
- viability, T/C (second compound 0.316 µM, first compound 0.00949 µM): 105%
- viability, T/C (second compound 0.316 µM, first compound 0.03 µM): 94.2%
- viability, T/C (second compound 0.316 µM, first compound 0.0949 µM): 91.3%
- viability, T/C (second compound 0.316 µM, first compound 0.3 µM): 85.3%
- viability, T/C (second compound 0.316 µM, first compound 0.949 µM): 96.5%
- viability, T/C (second compound 0.316 µM, first compound 3 µM): 87.1%
- viability, T/C (second compound 1 µM, first compound 0.00949 µM): 78.6%
- viability, T/C (second compound 1 µM, first compound 0.03 µM): 87.7%
- viability, T/C (second compound 1 µM, first compound 0.0949 µM): 76.8%
- viability, T/C (second compound 1 µM, first compound 0.3 µM): 75.8%
- viability, T/C (second compound 1 µM, first compound 0.949 µM): 88.8%
- viability, T/C (second compound 1 µM, first compound 3 µM): 79.5%
